# Earlier results in US20110053898A1, “TOPICAL COMPOSITION COMPRISING VITAMIN D ANALOGUE AND CORTICOSTEROIDS” (GLENMARK GENERICS LTD, priority 2009, published 2011).
# Conditions: vitamin-D3 derivative versus calcitriol
structure (smiles),measurement,value
C=C1/C(=C/C=C2\CCC[C@]3(C)[C@@H]([C@H](C)/C=C/C(O)C4CC4)CC[C@@H]23)C[C@@H](O)C[C@@H]1O (stereo partly shown) [Calcipotriene],Power relative to the natural hormone calcitriol,about 1%
